Experimental data as given in ChEMBL document CHEMBL1201862, “PubChem BioAssay data set” (2004).
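Five compound concentrations were applied to cells in 96-well plates for 48 hours; endpoints were derived by simple linear interpolation of the resulting dose-response curve. The concentration for 50% growth inhibition is given as GI50.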 The source made the active and inactive calls. Rule as the data show it: active = GI50 up to about 1.1 µM and inactive = higher.

Tests used:
Experiment in all cases: NCI tumour cell line growth inhibition, 48 h
[1] = system: Hs-578T
[2] = system: HT-29
[3] = system: K562
[4] = system: NCI-H460
[5] = system: A498
[6] = system: HOP-92
[7] = system: HCT-116
[8] = system: PC-3
[9] = system: SF-539
[10] = system: HOP-62
[11] = system: SK-MEL-2
[12] = system: LOX IMVI
[13] = system: BT-549
[14] = system: SK-MEL-28
[15] = system: ACHN
[16] = system: SF-295
[17] = system: COLO 205
[18] = system: RPMI-8226
[19] = system: OVCAR-4
[20] = system: LXFL 529

SMILES	GI50 [1]	GI50 [2]	GI50 [3]	GI50 [4]	GI50 [5]	GI50 [6]	GI50 [7]	GI50 [8]	GI50 [9]	GI50 [10]	GI50 [11]	GI50 [12]	GI50 [13]	GI50 [14]	GI50 [15]	GI50 [16]	GI50 [17]	GI50 [18]	GI50 [19]	GI50 [20]
O=C(O)Cc1nc[nH]c1C(=O)O	> 100 µM (inactive)	> 100 µM (inactive)	> 100 µM (inactive)	> 100 µM (inactive)	> 100 µM (inactive)	> 100 µM (inactive)	> 100 µM (inactive)	> 100 µM (inactive)	> 100 µM (inactive)	> 100 µM (inactive)	> 100 µM (inactive)	> 100 µM (inactive)	> 100 µM (inactive)	> 100 µM (inactive)	> 100 µM (inactive)	> 100 µM (inactive)	> 100 µM (inactive)	> 100 µM (inactive)	> 100 µM (inactive)	–
Cc1nc(N)nc(N)c1CCCc1ccccc1	–	2.15 µM (inactive)	0.552 µM (active)	3.47 µM (inactive)	–	11.6 µM (inactive)	2.7 µM (inactive)	–	13.9 µM (inactive)	12.1 µM (inactive)	7.98 µM (inactive)	3.18 µM (inactive)	–	15.2 µM (inactive)	4.35 µM (inactive)	5.18 µM (inactive)	22.8 µM (inactive)	33.3 µM (inactive)	18.4 µM (inactive)	8.05 µM (inactive)
O=C(Nc1sccc1S(=O)(=O)c1ccc(Cl)cc1)c1ccccc1	> 100 µM (inactive)	> 100 µM (inactive)	> 100 µM (inactive)	> 100 µM (inactive)	> 100 µM (inactive)	> 100 µM (inactive)	> 100 µM (inactive)	> 100 µM (inactive)	60.1 µM (inactive)	87.9 µM (inactive)	> 100 µM (inactive)	> 100 µM (inactive)	> 100 µM (inactive)	> 100 µM (inactive)	> 100 µM (inactive)	> 100 µM (inactive)	> 100 µM (inactive)	> 100 µM (inactive)	45 µM (inactive)	–
Cc1cc2c(cc1C)[n+]([O-])c(C(=O)/C=C/c1ccccc1Cl)c(C)[n+]2[O-]	–	34.8 µM (inactive)	37.9 µM (inactive)	26.2 µM (inactive)	36.6 µM (inactive)	–	–	–	19.9 µM (inactive)	24.6 µM (inactive)	27.5 µM (inactive)	31 µM (inactive)	–	26.9 µM (inactive)	24.5 µM (inactive)	32.1 µM (inactive)	20.7 µM (inactive)	45 µM (inactive)	50.7 µM (inactive)	18.2 µM (inactive)
CCOC(=O)c1c(SCCN(CC)CC)n(-c2ccccc2)c(=S)n(-c2ccccc2)c1=O	3.32 µM (inactive)	4.47 µM (inactive)	1.72 µM (inactive)	6.93 µM (inactive)	15.2 µM (inactive)	1.92 µM (inactive)	3.87 µM (inactive)	2.05 µM (inactive)	4.48 µM (inactive)	17.3 µM (inactive)	13.4 µM (inactive)	1.95 µM (inactive)	7.13 µM (inactive)	2.62 µM (inactive)	1.73 µM (inactive)	34.2 µM (inactive)	2.5 µM (inactive)	0.635 µM (active)	9.66 µM (inactive)	–
Nc1ncnn2c(C3OC(CO)C(O)C3O)ccc12 (configuration not stated)	0.0875 µM (active)	0.148 µM (active)	0.163 µM (active)	0.097 µM (active)	0.155 µM (active)	0.0173 µM (active)	0.0216 µM (active)	0.182 µM (active)	0.106 µM (active)	0.261 µM (active)	0.148 µM (active)	0.0201 µM (active)	0.175 µM (active)	0.164 µM (active)	0.17 µM (active)	0.323 µM (active)	0.188 µM (active)	0.147 µM (active)	0.0906 µM (active)	–
CCOC1C=CC(=O)C(CO)O1 (configuration not stated)	23.3 µM (inactive)	8.26 µM (inactive)	6.67 µM (inactive)	14.5 µM (inactive)	26.2 µM (inactive)	2.57 µM (inactive)	5.12 µM (inactive)	13.8 µM (inactive)	9.02 µM (inactive)	13.2 µM (inactive)	19.4 µM (inactive)	5.58 µM (inactive)	11.6 µM (inactive)	16.9 µM (inactive)	10.8 µM (inactive)	17.9 µM (inactive)	13.4 µM (inactive)	2.14 µM (inactive)	8.97 µM (inactive)	–
O=C1CC2CCCCC2=C1O (configuration not stated)	–	–	> 100 µM (inactive)	> 100 µM (inactive)	> 100 µM (inactive)	–	> 100 µM (inactive)	–	> 100 µM (inactive)	> 100 µM (inactive)	> 100 µM (inactive)	> 100 µM (inactive)	–	> 100 µM (inactive)	> 100 µM (inactive)	> 100 µM (inactive)	> 100 µM (inactive)	> 100 µM (inactive)	> 100 µM (inactive)	> 100 µM (inactive)
C#CC[C@]12CC(=O)CC[C@H]1CC1(C2)OCCO1	–	–	> 100 µM (inactive)	> 100 µM (inactive)	> 100 µM (inactive)	–	> 100 µM (inactive)	–	> 100 µM (inactive)	> 100 µM (inactive)	> 100 µM (inactive)	–	–	> 100 µM (inactive)	> 100 µM (inactive)	–	> 100 µM (inactive)	> 100 µM (inactive)	> 100 µM (inactive)	> 100 µM (inactive)
COC(=O)[C@H](COC(C)(C)C)NC(=O)N[C@H](C)c1ccccc1	> 100 µM (inactive)	> 100 µM (inactive)	> 100 µM (inactive)	> 100 µM (inactive)	> 100 µM (inactive)	> 100 µM (inactive)	> 100 µM (inactive)	> 100 µM (inactive)	> 100 µM (inactive)	> 100 µM (inactive)	> 100 µM (inactive)	> 100 µM (inactive)	> 100 µM (inactive)	> 100 µM (inactive)	> 100 µM (inactive)	> 100 µM (inactive)	> 100 µM (inactive)	> 100 µM (inactive)	> 100 µM (inactive)	–
Cc1cccc2c1NC(=S)[C@@H]1CCCN1C2=O	> 100 µM (inactive)	> 100 µM (inactive)	> 100 µM (inactive)	> 100 µM (inactive)	> 100 µM (inactive)	> 100 µM (inactive)	> 100 µM (inactive)	> 100 µM (inactive)	> 100 µM (inactive)	> 100 µM (inactive)	> 100 µM (inactive)	> 100 µM (inactive)	> 100 µM (inactive)	> 100 µM (inactive)	> 100 µM (inactive)	> 100 µM (inactive)	> 100 µM (inactive)	> 100 µM (inactive)	> 100 µM (inactive)	–
COC(=O)CCC(=O)Nc1ccc(Cl)cc1C	–	> 100 µM (inactive)	20.8 µM (inactive)	> 100 µM (inactive)	–	> 60.8 µM (inactive)	> 100 µM (inactive)	–	> 100 µM (inactive)	39.4 µM (inactive)	> 47.8 µM (inactive)	> 25.8 µM (inactive)	–	> 100 µM (inactive)	> 37.2 µM (inactive)	> 100 µM (inactive)	> 64.9 µM (inactive)	0.973 µM (active)	> 75.7 µM (inactive)	32.1 µM (inactive)
CN1C(=O)CCC1(O)C1C=CC=CC1 (configuration not stated)	–	> 100 µM (inactive)	> 100 µM (inactive)	> 100 µM (inactive)	–	–	> 100 µM (inactive)	–	> 100 µM (inactive)	> 100 µM (inactive)	–	> 100 µM (inactive)	–	> 100 µM (inactive)	> 100 µM (inactive)	> 100 µM (inactive)	> 100 µM (inactive)	> 100 µM (inactive)	> 100 µM (inactive)	> 100 µM (inactive)
Cc1ccc(S(=O)(=O)OC2CSSCC2OS(=O)(=O)c2ccc(C)cc2)cc1 (configuration not stated)	–	9.68 µM (inactive)	14.9 µM (inactive)	17.7 µM (inactive)	–	11.4 µM (inactive)	13.3 µM (inactive)	–	10.5 µM (inactive)	20.3 µM (inactive)	15.7 µM (inactive)	13.8 µM (inactive)	–	16.6 µM (inactive)	15.3 µM (inactive)	16.2 µM (inactive)	13.7 µM (inactive)	13.2 µM (inactive)	11.2 µM (inactive)	11.4 µM (inactive)
CC(C)C1CC(O)O[C@@H]([C@@H](C)[C@H]2CC(=O)[C@@H]3[C@@H]4[C@@H](O)[C@H](O)[C@H]5[C@@H](O)[C@H](O)CC[C@]5(C)[C@H]4CC[C@]23C)C1 (some centres not stated)	–	> 100 µM (inactive)	> 100 µM (inactive)	> 100 µM (inactive)	–	22.2 µM (inactive)	29.4 µM (inactive)	–	> 100 µM (inactive)	21.2 µM (inactive)	53.6 µM (inactive)	50.1 µM (inactive)	–	> 100 µM (inactive)	24.4 µM (inactive)	47.8 µM (inactive)	> 100 µM (inactive)	–	> 100 µM (inactive)	> 100 µM (inactive)
COc1cc2oc(-c3ccc(O)cc3O)c(CC=C(C)C)c(=O)c2c(O)c1/C=C/C(C)C [ARTOCARPIN]	3.44 µM (inactive)	2.51 µM (inactive)	2.12 µM (inactive)	3.21 µM (inactive)	2.21 µM (inactive)	3.08 µM (inactive)	2.1 µM (inactive)	2.79 µM (inactive)	4.91 µM (inactive)	2.42 µM (inactive)	6.41 µM (inactive)	1.8 µM (inactive)	5.45 µM (inactive)	5.85 µM (inactive)	2.8 µM (inactive)	3.48 µM (inactive)	4.02 µM (inactive)	2.62 µM (inactive)	2.61 µM (inactive)	–
